The values below come from US20150265682A1, “THERAPEUTIC METHODS AND COMPOSITIONS FOR TREATING DIABETES” (Orient Europharma Co., Ltd., priority 2014, published 2015).

For test [1], the system named is skeletal muscle of normal, T1DM and T2DM mice. The test is described as follows: Glycogen content in skeletal muscle after borapetoside C and insulin. Type of test: in vivo, ICR mice. Particulars: for Glycogen content in skeletal muscle: BoC 0.1 mg/kg i.p. 30 min before insulin, 30 min after insulin injection. The protocol:
(§1) T1DM mice were induced by a known method. In brief, an intraperitoneal injection of streptozotocin (STZ; Sigma Chemical Co.; St. Louis, Mo.) at 150 mg/kg was performed in mice that were fasted for 48 h. The induction of T1DM was assessed and confirmed when the mice had plasma glucose levels ≧350 mg/dL, accompanied with polyuria, hyperphagia and decreased body weight. The control mice group received an injection of vehicle and then carried out for 4 weeks. T2DM mice were induced by maintaining on a fat-rich chow diet and fructose-sweetened water for 4 weeks from the age of 4-5 weeks according to previous methods. The induction T2DM mice were assessed by measuring fasting plasma glucose levels and confirmed when plasma glucose level was ≧150 mg/dL after a 4-week induction.
Glycogen content of skeletal muscles was measured by a known method. In brief, mice were injected with borapetoside C (5.0 mg/kg, interperitoneal) for 60 min or insulin (0.5 IU/kg, interperitoneal.) for 30 min, and the soleus muscle was isolated from anesthetized mice. About 40 mg of muscle sample was dissolved in 1 N KOH at 75° C. for 30 min. The dissolved homogenate was neutralized by glacial acetic acid and then incubated overnight in acetate buffer (0.3 M sodium acetate, pH 4.8) containing amyloglucosidase (Sigma, St. Louis, Mo.). The mixture was then neutralized with 1 N NaOH to stop the reaction. The glycogen contents in the tissue samples were determined as μg of glucose per mg of tissue (wet weight).
Both non-diabetic and diabetic mice were subjected to various doses of insulin injections at 30 min after intraperitoneal injections with borapetoside C (0.1 mg/kg) or with the vehicle. The glycogen contents in skeletal muscles were then determined at 30 min after insulin injections (Table 4). The ratios of increased glycogen content in the other groups were normalized to those of vehicle-treated group. The ratio was 119.8%, 125.3%, and 108.5% in normal, T1DM, and T2DM mice of insulin-treated group. In borapetoside C combined with insulin-treated group, it was 130.2%, 162.8%, and 122.6% in normal, T1DM, and T2DM mice. […] The increase of insulin sensitivity by borapetoside C is more prominent in diabetic mice than normal mice. Similarly, plasma glucose reduction in mice treated with insulin and borapetoside A are tested and measured.

In test [2] the test system is soleus muscle of normal, type 1 DM and type 2 DM mice. Put plainly: Glycogen content in soleus muscle in vivo (borapetoside A). Particulars: borapetoside A 10 mgkg^−1 i.p. 60 minutes, insulin 0.5 IUkg^−1. Also on record: species or system ICR mice. The protocol:
After three days of acclimatization, the mice had free access to a standard rodent chow (normal mice), a standard rodent chow after single […] streptozotocin (STZ) intraperitoneal injection (T1DM mice), and a fat-rich chow diet and fructose-sweetened water (T2DM mice) for 4 weeks. The induction of Type 1 DM was assessed and confirmed when the mice had plasma glucose levels ≧350 mgdL^−1, accompanied with polyuria, hyperphagia and decreased body weight. The induction Type 2 DM in the mice was assessed by measuring fasting plasma glucose levels and confirmed when plasma glucose level was ≧150 mgdL^−1 after the 4-week induction. The animals were assigned randomly into three groups, with seven animals in each group. In group I, the mice were treated with vehicle, 2% DMSO in normal saline, as the negative control. In group II, the mice were intraperitoneally treated with borapetoside A (0.1-10 mgkg^−1). In group Ill, the positive control, the mice received intraperitoneally metformin (300 mgkg^−1; Sigma Chemical Co., St. Louis, Mo., U.S.A.) or insulin (0.5 IUkg^−1; Insulin Actrapid® HM; Novo Nordisk, Denmark). In the acute study, mice under anesthesia received a single intraperitoneal administration of borapetoside A, negative control, or positive control. In the subacute study, mice received intraperitoneal administrations of borapetoside A, vehicle, or insulin twice a day for seven days.
The mice were injected with borapetoside A (10 mgkg^−1, interperitoneal) for 60 minutes or insulin (0.5 IUkg^−1, interperitoneal) for 30 minutes. After the treatment, the anesthetic mice were sacrificed by cervical dislocation to collect the soleus muscle and liver. About 40 mg of each sample was dissolved in 1 mol/L KOH at 75° C. for 30 min. The dissolved homogenate was neutralized by glacial acetic acid and then incubated overnight in acetate buffer (0.3 mol/L sodium acetate, pH 4.8) containing amyloglucosidase (Sigma, St. Louis, Mo.). The mixture was then neutralized with 1 mol/L NaOH to stop the reaction. The glycogen contents in the tissue samples were determined as μg of glucose per mg of tissue (wet weight).

In test [3] the test system is normal, T1DM and T2DM mice. Put plainly: Insulin tolerance test (ITT): activity of lowering plasma glucose (AL). Type of test: in vivo, ICR mice. Particulars: 30 min after insulin. The method, then: as §1
Blood samples were collected from the orbital vascular plexus of mice under anesthesia with sodium pentobarbital (80 mg/kg, intraperitoneal, Sigma Chemical Co., St. Louis, Mo., USA). Blood samples were then centrifuged at 13000 rpm for 5 min, and the plasma was kept on ice prior to the assay. The plasma glucose concentration was measured using commercial kits following manufacturer's instructions (BioSystems S. A., Barcelona, Spain).
To perform OGTT, mice were fasted overnight, divided into 2 groups and then administered a vehicle control and 5 mg/kg borapetoside C. This was followed by administration of a glucose solution at 2 g/kg via tube feeding. Blood samples were withdrawn from the orbital vascular plexus at intervals of 30, 60, 120, and 150 min after glucose administration. For the ITT, mice were fasted for 3 h. Human insulin (Insulin Actrapid) HM; Novo Nordisk, Denmark) was injected intraperitoneally after an intraperitoneal administration of 0.1 mg/kg borapetoside C for 30 min. Blood samples were collected from the orbital vascular plexus at the timed intervals mentioned above.
Therefore, the effects of borapetoside C on insulin tolerance were tested in this study. The non-diabetic, T1DM, and T2DM mice were injected with insulin at various doses (i.e., 0.1 IU/kg, 0.5 IU/kg, and 1.0 IU/kg) in conjunction with either borapetoside C (0.1 mg/kg) or a vehicle control (Table 3), and their plasma glucose levels were examined before and 30 min after insulin injection. The activity of lowering plasma glucose levels (AL) was calculated by the formula: (Gi−Gt)/Gi×100%, where the Gi was the initial glucose concentration and G1 was the plasma glucose concentration after 30-min treatment with insulin. Insulin reduced the plasma glucose levels in both normal and diabetic mice, and the glucose levels were further decreased when insulin was co-administered with borapetoside C to the mice.

The mark [4] stands for this setting: Normal mice, insulin 0.1 IU/kg with borapetoside C 0.1 mg/kg or vehicle.
The mark [5] stands for this setting: Normal mice, insulin 0.5 IU/kg with borapetoside C 0.1 mg/kg or vehicle.
Where [6] appears, read: Normal mice, insulin 1.0 IU/kg with borapetoside C 0.1 mg/kg or vehicle.
Setting [7] is: T1DM mice, insulin 0.1 IU/kg with borapetoside C 0.1 mg/kg or vehicle.
[8] abbreviates: T1DM mice, insulin 0.5 IU/kg with borapetoside C 0.1 mg/kg or vehicle.
Where [9] appears, read: T1DM mice, insulin 1.0 IU/kg with borapetoside C 0.1 mg/kg or vehicle.
Setting [10] is: T2DM mice, insulin 0.1 IU/kg with borapetoside C 0.1 mg/kg or vehicle.
The mark [11] stands for this setting: T2DM mice, insulin 0.5 IU/kg with borapetoside C 0.1 mg/kg or vehicle.
[12] abbreviates: T2DM mice, insulin 1.0 IU/kg with borapetoside C 0.1 mg/kg or vehicle.

As to “Insulin: human insulin, Insulin Actrapid HM, a short-acting insulin provided by Novo Nordisk [reference compound]”, the “Glycogen content in skeletal muscle” value in test [1] (Normal mice) is 38.1 ± 0.3 μg of glucose per mg of tissue (wet weight); in test [1] (T1DM mice) it was 38.1 ± 2.3 μg of glucose per mg of tissue (wet weight); in test [1] (T2DM mice) it was 35.5 ± 1.1 μg of glucose per mg of tissue (wet weight). For the same compound, the “ratio of glycogen content normalized to vehicle-treated group” value in test [1] (T1DM mice) is 125.3%; in test [1] (T2DM mice) it was 108.5%; in test [1] (normal mice) it was 119.8%. Moreover, the “glycogen content in soleus muscle” value in test [2] (mice with type 2 DM) was “failed to enhance”. For the same compound, the “AL (activity of lowering plasma glucose levels)” value in test [3] (setting [4]) was 14.6 ± 0.8%; in test [3] (setting [5]) it was 37.5 ± 1.1%; in test [3] (setting [6]), 56.8 ± 1.9%; in test [3] (setting [7]), 8.7 ± 1.6%; in test [3] (setting [8]) it was 11.5 ± 0.6%; in test [3] (setting [9]) it was 24.0 ± 1.3%. Also, the figures for the “AL (activity of lowering plasma glucose levels)” value in test [3] (setting [10]), in test [3] (setting [11]) and in test [3] (setting [12]) were 19.5 ± 1.5%, 27.5 ± 2.6% and 32.0 ± 1.1%, respectively.
Consider `C[C@@]12C[C@@H](c3ccoc3)OC(=O)[C@@H]1C[C@@H]1OC(=O)[C@@]3(O)[C@@H](O[C@@H]4O[C@H](CO)[C@@H](O)[C@H](O)[C@H]4O)CC[C@@H]2[C@@]13C` [Borapetoside A, borapetoside A], for which the “glycogen content in soleus muscle” value in test [2] (mice with type 1 DM) was 155.6±8.6 % of vehicle control; in test [2] (mice with type 2 DM) it was 171.8±12.0 % of vehicle control; in test [2] (normal mice) it was 116.5±4.2 % of vehicle control.
Consider `COC(=O)C1=CCC[C@H]2[C@]3(C)C[C@@H](c4ccoc4)OC(=O)[C@@H]3C[C@@H](O[C@@H]3O[C@H](CO)[C@@H](O)[C@H](O)[C@H]3O)[C@@]12C` [Borapetoside C, borapetoside C], for which the “Glycogen content in skeletal muscle” value in test [1] (Normal mice) was 32.7 ± 0.7 μg of glucose per mg of tissue (wet weight); in test [1] (T1DM mice), 30.0 ± 1.2 μg of glucose per mg of tissue (wet weight); in test [1] (T2DM mice) it was 30.7 ± 1.3 μg of glucose per mg of tissue (wet weight). The “AL (activity of lowering plasma glucose levels)” value in test [3] (setting [4]) stood at 17.2 ± 1.2%; in test [3] (setting [5]) it was 45.7 ± 3.7%; in test [3] (setting [6]) it was 64.7 ± 1.8 %; in test [3] (setting [7]), 10.5 ± 1.4%; in test [3] (setting [8]), 18.9 ± 2.1%; in test [3] (setting [9]), 32.2 ± 2.1 %. The “AL (activity of lowering plasma glucose levels)” value in test [3] (setting [10]) is recorded as 24.0 ± 1.1%; in test [3] (setting [11]), 31.6 ± 1.6%; in test [3] (setting [12]), 42.5 ± 0.8 %.
